Laboratory results published in ChEMBL document CHEMBL1201862, “PubChem BioAssay data set” (2004).
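How tested: cells in 96-well plates exposed to compound for 48 hours at five concentrations. GI50: concentration for 50% inhibition of growth.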 Active and inactive are the calls of the source. Cut-off read from the data, not from the text of the source: active = GI50 up to about 1.1 µM and inactive = higher.

How the values were obtained:
Assay in all cases: growth of human tumour cells (NCI), 48 h
DLD-1 = system: DLD-1
DMS-114 = system: DMS-114
HOP-18 = system: HOP-18
KM-20L2 = system: KM-20L2
LXFL 529 = system: LXFL 529
M19-MEL = system: M19-MEL
RXF 631 = system: RXF 631
SNB-78 = system: SNB-78
XF498 = system: XF498

Measured: GI50

O=C(CC(=O)N1N=C(c2ccccc2)C(/N=N/c2ccc(Cl)cc2)C1=O)Nc1ccccc1Cl (centres undefined)
inactive: DLD-1 30.3 µM | DMS-114 90.6 µM | HOP-18 24.2 µM | KM-20L2 80.9 µM | LXFL 529 26.7 µM | M19-MEL 51.3 µM | RXF 631 40.6 µM | SNB-78 64 µM | XF498 35.7 µM

CN1C=C(C(N)=O)C2CC(O)[C@@](NC(=O)CS(N)(=O)=O)(C(=O)O)C2C1 (some centres undefined)
inactive: DLD-1 16.8 µM | DMS-114 2.52 µM | HOP-18 8.41 µM | KM-20L2 3.79 µM | M19-MEL 4.39 µM | RXF 631 2.98 µM | SNB-78 2.75 µM | XF498 1.27 µM

CC(=O)OC1COC(N2C(=O)C(=O)c3cc(Br)ccc32)C(OC(C)=O)C1OC(C)=O (centres undefined)
inactive: DLD-1 > 100 µM | DMS-114 > 100 µM | HOP-18 > 100 µM | KM-20L2 > 100 µM | LXFL 529 > 100 µM | M19-MEL 52.1 µM | RXF 631 > 100 µM | SNB-78 > 100 µM | XF498 > 100 µM

NC(CCC(=O)NC(CSSCCCCS(=O)O)C(=O)NCC(=O)O)C(=O)O (centres undefined)
inactive: DLD-1 > 100 µM | DMS-114 > 100 µM | HOP-18 > 100 µM | KM-20L2 > 100 µM | LXFL 529 > 100 µM | M19-MEL > 100 µM | RXF 631 > 100 µM | SNB-78 > 100 µM | XF498 > 100 µM

COC(=O)c1ccccc1NC(=O)C(=O)Cc1nc2c3c(ccc2nc1O)C(=O)c1ccccc1C3=O
inactive: DLD-1 6.35 µM | DMS-114 7.62 µM | HOP-18 > 100 µM | KM-20L2 32.7 µM | LXFL 529 22.6 µM | M19-MEL 6.56 µM | RXF 631 25.2 µM | SNB-78 34 µM | XF498 26.7 µM
